Test results: patent publication US9782371B2, “Composition for promoting remyelination in nerve cells comprising 2,5-dihydroxybenzenesulfonic acid and use thereof” (Samsung Electronics Co., Ltd., priority 2015, dated 2017)

Columns and labels:
[1] = test system: myelin surrounding axons of the posterior lateral line nerves (PLLs); test: Remyelination of peripheral nervous system (PLL myelin) in MTZ-demyelinated transformed zebrafish, GFP-fluorescence confocal microscopy; format: in vivo, Zebrafish (Danio rerio)
Description: Transformed Zebrafish (Danio rerio) in which genes respectively encoding an Mbp:EGFP fusion protein and a Claudink:EGFP fusion protein that are specifically expressed in myelin and emit fluorescence by using promoters of a myelin basic protein (MBP) gene and a Claudink gene were prepared, by transforming Zebrafish cells with genes respectively encoding an Mbp:EGFP fusion protein and a Claudink:EGFP fusion protein. Specifically, the NfsB virulence gene encodes a nitroreductase (NTR) enzyme. […] However, when metronidazole (MTZ) is added to cells, the cells convert MTZ into a cytotoxic material by using NTR, which induces apoptosis. Genetically engineered zebrafish, i.e., transformed zebrafish that express the NfsB virulence gene specifically in differentiated oligodendrocytes and Schwann cells were prepared by using promoters of mbp and claudink genes that specifically operate in differentiated myelin to express myelin-specific genes bound to myelin, and using the Gal4-UAS transactivator system. Next, it was confirmed that the NfsB virulence gene was myelin-specifically expressed in the transformed zebrafish.
As a result, an animal model of demyelination that is induced in the presence of MTZ was established. Hereinafter, this animal model is also referred to as zebrafish (Mbp (or claudink):gal4::UAS:nfsB (NTR, toxin)::UAS:gfp). After removing the added MTZ substrate from the culture medium, the transformed zebrafish were then cultured in a culture medium free of MTZ for 1 day, followed by a recovery period. This study, described in greater detail below, confirmed that natural remyelination occurred in the demyelinated central nervous system and peripheral nervous system and that ES drug has an effect of promoting remyelination. […]

[2] = test system: Mauthner axons and myelin in the central nervous system; test: Remyelination of central nervous system (Mauthner axons) in MTZ-demyelinated transformed zebrafish, g-ratio; format: in vivo, Zebrafish (Danio rerio); conditions: zebrafish ClaudinK line
Description: Transformed Zebrafish (Danio rerio) in which genes respectively encoding an Mbp:EGFP fusion protein and a Claudink:EGFP fusion protein that are specifically expressed in myelin and emit fluorescence by using promoters of a myelin basic protein (MBP) gene and a Claudink gene were prepared, by transforming Zebrafish cells with genes respectively encoding an Mbp:EGFP fusion protein and a Claudink:EGFP fusion protein. Specifically, the NfsB virulence gene encodes a nitroreductase (NTR) enzyme. […] However, when metronidazole (MTZ) is added to cells, the cells convert MTZ into a cytotoxic material by using NTR, which induces apoptosis. […]
FIG. 6 illustrates the results of GFP-originated fluorescence microscopy and red fluorescence microscopy with immunostaining by acetylated-tubulin that is expressed specific to axons, by using a confocal laser microscope on sections of Mauthner axons and myelin in the central nervous system of the zebrafish (ClaudinK:gal4::UAS:nfsB (NTR, toxin)::UAS:gfp) incubated under various conditions. […] The axon and fiber diameters were obtained by calculating the diameters from the intensities of GFP-originated fluorescence and red axonal fluorescence with the Image J program. […]

[3] = test system: PMP22; test: PMP22 protein expression by Western blotting in rat Schwann cells overexpressing human PMP22; format: cell-based
Description: Rat Schwann cells were inoculated at a concentration of about 10^5 cells/mL into each well of a 12-well plate including 2 mL of a Dulbecco's Modified Eagle's Medium (DMEM) containing 10% fetal bovine serum (FBS), 100 units/mL of penicillin, and 100 units/mL of streptomycin, and incubated in a 5%-CO2 incubator at about 37° C. to a cell density of about 60% to about 65%. […] Rat Schwann cells are often used in in vitro models for neuronal function and differentiation. The rat Schwann cells used herein were modified to consistently overexpress the human PMP22 gene by lentivital mediated integration of PMP22 into a chromosome and selective use of puromycin-resistant markers, thereby constructing a new rat Schwann PMP22 cell model. The rat Schwann cells (ATCC number; CRL-2768) were purchased from the American Type Culture Collection (ATCC).
After 2 mL of the culture medium was removed, the resulting rat Schwann cells were washed with phosphate buffered saline (PBS), followed by adding a lysis solution containing a 0.5% triton X-100 in PBS thereto, collecting the cells using a scraper, leaving the cells on ice for about 30 minutes, and then disrupting the cells. […]

## CCNCC.O=S(=O)(O)c1cc(O)ccc1O [ethamsylate, diethyl ammonium 2,5-dihydroxybenzene sulfonic acid]
[1]; zebrafish Claudink line, 10 μM ES vs MTZ treated sample, FIGS. 4 and 5
  ratio of myelinated axons to total axons: significantly higher
[1]; zebrafish Claudink:gal4::UAS:nfsB::UAS:gfp, 10 μM ES after MTZ, FIG. 4
  remyelination of PLL myelin (GFP and acetylated-tubulin fluorescence): promote remyelination
[1]; zebrafish Mbp:gal4::UAS:nfsB::UAS:gfp, MTZ 4.5-6 dpf, washed, 10 μM ES 6-7 dpf (about 1 day), FIG. 3 panel D
  myelin in the peripheral nervous system (GFP-originated green fluorescence): completely remyelinated
[2]; Mauthner axons, 10 μM ethamsylate vs MTZ treatment group, FIG. 8
  g-ratio (diameter ratio of axon to nerve fiber): remarkably reduced g-ratio
[2]; incubated in presence of ethamsylate after MTZ, FIGS. 6 and 8
  regeneration or remyelination of demyelinated nerve cells in the central nervous system: remyelinated with a significantly higher efficiency
[3]; 10 μM ethamsylate, incubation for 0.5, 1, 12, 24 and 48 hours, vs 0 hour control, FIG. 1 panel B
  expression level of PMP22 protein: decreased compared to the control group
[3]; 0.1, 1, 10, 100 μM ethamsylate in DMSO, about 24 hours, vs DMSO control, FIG. 1 panel A, n=4
  amount of PMP22 protein expressed: decrease in the amount of PMP22 protein expressed
